Measured values from paper PMC11480411, “Mucosal sugars delineate pyrazine vs pyrazinone autoinducer signaling in Klebsiella oxytoca” (Nature Communications, 2024).

Experiments:
Assay in all cases: PRESTO-Tango GPCR screen
Format in all cases: cell-based
Conditions in all cases: 100 µM
[1] = biological target: T1, PK2 (Homo sapiens, UniProt Q8NFJ6)
T1 construct: purchased PRESTO-Tango GPCR kit (Roth lab / Addgene)
How it was run: (§1)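 β-Arrestin recruitment Tango format: HTLA cells, PEI transfection of receptor-Tango construct, 16-24 h; test compound 100 μM final, 20 h; Bright-Glo luminescence; RLU/PBS control RLU = fold activation. Dose-response curves run from 10^−4 M to 10^−15 M.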

[2] = biological target: T2, RXFP3 (Homo sapiens, UniProt Q9NSD7)
T2 construct: purchased PRESTO-Tango GPCR kit (Roth lab / Addgene)
How it was run: as §1

[3] = biological target: T3, ADRA2B (Homo sapiens, UniProt P18089)
T3 construct: purchased PRESTO-Tango GPCR kit (Roth lab / Addgene)
How it was run: as §1

[4] = biological target: T4, ADORA1 (Homo sapiens, UniProt P30542)
T4 construct: purchased PRESTO-Tango GPCR kit (Roth lab / Addgene)
How it was run: as §1

[5] = biological target: T5, HTR2C (Homo sapiens, UniProt P28335)
T5 construct: purchased PRESTO-Tango GPCR kit (Roth lab / Addgene)
How it was run: as §1

[6] = biological target: T6, CHRM4 (Homo sapiens, UniProt P08173)
T6 construct: purchased PRESTO-Tango GPCR kit (Roth lab / Addgene)
How it was run: as §1

[7] = biological target: T7, ADRB2 (Homo sapiens, UniProt P07550)
T7 construct: purchased PRESTO-Tango GPCR kit (Roth lab / Addgene)
How it was run: as §1

[8] = biological target: T8, BDKBR1 (Homo sapiens, UniProt P46663)
T8 construct: purchased PRESTO-Tango GPCR kit (Roth lab / Addgene)
How it was run: as §1

[9] = biological target: T9, LPAR2 (Homo sapiens, UniProt Q9HBW0)
T9 construct: purchased PRESTO-Tango GPCR kit (Roth lab / Addgene)
How it was run: as §1

[10] = biological target: T10, CHRM2 (Homo sapiens, UniProt P08172)
T10 construct: purchased PRESTO-Tango GPCR kit (Roth lab / Addgene)
How it was run: as §1

[11] = biological target: T11, GPRC5C (Homo sapiens, UniProt Q9NQ84)
T11 construct: purchased PRESTO-Tango GPCR kit (Roth lab / Addgene)
How it was run: as §1

[12] = biological target: T12, SSTR1 (Homo sapiens, UniProt P30872)
T12 construct: purchased PRESTO-Tango GPCR kit (Roth lab / Addgene)
How it was run: as §1

[13] = biological target: T13, SSTR2 (Homo sapiens, UniProt P30874)
T13 construct: purchased PRESTO-Tango GPCR kit (Roth lab / Addgene)
How it was run: as §1

[14] = biological target: T14, F2R (Homo sapiens, UniProt P25116)
T14 construct: purchased PRESTO-Tango GPCR kit (Roth lab / Addgene)
How it was run: as §1

[15] = biological target: T15, GPR141 (Homo sapiens, UniProt Q7Z602)
T15 construct: purchased PRESTO-Tango GPCR kit (Roth lab / Addgene)
How it was run: as §1

[16] = biological target: T16, MRGPRD (Homo sapiens, UniProt Q8TDS7)
T16 construct: purchased PRESTO-Tango GPCR kit (Roth lab / Addgene)
How it was run: as §1

[17] = biological target: T17, GPR97 (Homo sapiens, UniProt Q86Y34)
T17 construct: purchased PRESTO-Tango GPCR kit (Roth lab / Addgene)
How it was run: as §1

[18] = biological target: T18, NPY1R (Homo sapiens, UniProt P25929)
T18 construct: purchased PRESTO-Tango GPCR kit (Roth lab / Addgene)
How it was run: as §1

[19] = biological target: T19, GPR34 (Homo sapiens, UniProt Q9UPC5)
T19 construct: purchased PRESTO-Tango GPCR kit (Roth lab / Addgene)
How it was run: as §1

[20] = biological target: T20, KISSPEPTIN-R (Homo sapiens, UniProt Q969F8)
T20 construct: purchased PRESTO-Tango GPCR kit (Roth lab / Addgene)
How it was run: as §1

[21] = biological target: T21, MRGPRG (Homo sapiens, UniProt Q86SM5)
T21 construct: purchased PRESTO-Tango GPCR kit (Roth lab / Addgene)
How it was run: as §1

[22] = biological target: T22, GPR123 (Homo sapiens, UniProt Q86SQ6)
T22 construct: purchased PRESTO-Tango GPCR kit (Roth lab / Addgene)
How it was run: as §1

[23] = biological target: T23, FPR1 (Homo sapiens, UniProt P21462)
T23 construct: purchased PRESTO-Tango GPCR kit (Roth lab / Addgene)
How it was run: as §1

[24] = biological target: T24, CD97 (Homo sapiens, UniProt P48960)
T24 construct: purchased PRESTO-Tango GPCR kit (Roth lab / Addgene)
How it was run: as §1

[25] = biological target: T25, ADRA1B (Homo sapiens, UniProt P35368)
T25 construct: purchased PRESTO-Tango GPCR kit (Roth lab / Addgene)
How it was run: as §1

[26] = biological target: T26, MC1R (Homo sapiens, UniProt Q01726)
T26 construct: purchased PRESTO-Tango GPCR kit (Roth lab / Addgene)
How it was run: as §1

[27] = biological target: T27, GRM7 (Homo sapiens, UniProt Q14831)
T27 construct: purchased PRESTO-Tango GPCR kit (Roth lab / Addgene)
How it was run: as §1

[28] = biological target: T28, ADORA2B (Homo sapiens, UniProt P29275)
T28 construct: purchased PRESTO-Tango GPCR kit (Roth lab / Addgene)
How it was run: as §1

[29] = biological target: T29, DRD5 (Homo sapiens, UniProt P21918)
T29 construct: purchased PRESTO-Tango GPCR kit (Roth lab / Addgene)
How it was run: as §1

[30] = biological target: T30, GPR83 (Homo sapiens, UniProt Q9NYM4)
T30 construct: purchased PRESTO-Tango GPCR kit (Roth lab / Addgene)
How it was run: as §1

[31] = biological target: T31, AVPR1B (Homo sapiens, UniProt P47901)
T31 construct: purchased PRESTO-Tango GPCR kit (Roth lab / Addgene)
How it was run: as §1

[32] = biological target: T32, FFA3 (Homo sapiens, UniProt O14843)
T32 construct: purchased PRESTO-Tango GPCR kit (Roth lab / Addgene)
How it was run: as §1

[33] = biological target: T33, GPR4 (Homo sapiens, UniProt P46093)
T33 construct: purchased PRESTO-Tango GPCR kit (Roth lab / Addgene)
How it was run: as §1

[34] = biological target: T34, VIPR1 (Homo sapiens, UniProt P32241)
T34 construct: purchased PRESTO-Tango GPCR kit (Roth lab / Addgene)
How it was run: as §1

[35] = biological target: T35, GPR64 (Homo sapiens, UniProt Q8IZP9)
T35 construct: purchased PRESTO-Tango GPCR kit (Roth lab / Addgene)
How it was run: as §1

T3 sequence (P18089 whole entry): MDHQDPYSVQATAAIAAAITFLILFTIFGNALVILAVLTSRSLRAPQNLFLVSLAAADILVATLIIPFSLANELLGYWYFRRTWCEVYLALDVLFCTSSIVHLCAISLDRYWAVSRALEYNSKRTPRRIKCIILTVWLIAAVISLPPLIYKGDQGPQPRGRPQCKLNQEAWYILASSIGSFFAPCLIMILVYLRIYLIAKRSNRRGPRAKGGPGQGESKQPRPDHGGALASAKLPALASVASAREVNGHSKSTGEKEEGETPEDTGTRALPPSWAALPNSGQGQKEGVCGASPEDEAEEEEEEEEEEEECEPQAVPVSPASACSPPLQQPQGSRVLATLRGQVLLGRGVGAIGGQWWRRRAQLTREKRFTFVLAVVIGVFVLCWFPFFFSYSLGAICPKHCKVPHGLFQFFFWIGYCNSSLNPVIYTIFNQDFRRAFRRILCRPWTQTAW
T19 sequence (Q9UPC5 whole entry): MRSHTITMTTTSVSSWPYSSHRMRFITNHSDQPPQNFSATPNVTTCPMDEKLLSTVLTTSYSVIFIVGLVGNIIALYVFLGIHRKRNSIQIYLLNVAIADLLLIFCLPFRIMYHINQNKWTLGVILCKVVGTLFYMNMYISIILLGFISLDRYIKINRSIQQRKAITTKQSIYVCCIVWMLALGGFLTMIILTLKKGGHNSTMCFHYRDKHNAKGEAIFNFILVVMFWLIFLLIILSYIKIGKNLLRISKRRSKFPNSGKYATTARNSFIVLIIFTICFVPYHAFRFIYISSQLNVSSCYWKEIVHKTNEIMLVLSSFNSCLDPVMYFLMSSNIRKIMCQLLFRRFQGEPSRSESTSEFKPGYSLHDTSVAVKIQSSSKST
T26 sequence (Q01726 whole entry): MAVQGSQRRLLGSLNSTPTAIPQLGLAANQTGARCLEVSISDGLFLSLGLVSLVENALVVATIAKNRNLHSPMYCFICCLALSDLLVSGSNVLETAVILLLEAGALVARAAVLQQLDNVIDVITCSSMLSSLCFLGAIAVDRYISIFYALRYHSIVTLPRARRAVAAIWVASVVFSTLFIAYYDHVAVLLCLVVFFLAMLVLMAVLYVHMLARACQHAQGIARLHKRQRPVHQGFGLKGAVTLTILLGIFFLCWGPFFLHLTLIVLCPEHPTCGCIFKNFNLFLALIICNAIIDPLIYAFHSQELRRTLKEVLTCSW
T31 sequence (P47901 whole entry): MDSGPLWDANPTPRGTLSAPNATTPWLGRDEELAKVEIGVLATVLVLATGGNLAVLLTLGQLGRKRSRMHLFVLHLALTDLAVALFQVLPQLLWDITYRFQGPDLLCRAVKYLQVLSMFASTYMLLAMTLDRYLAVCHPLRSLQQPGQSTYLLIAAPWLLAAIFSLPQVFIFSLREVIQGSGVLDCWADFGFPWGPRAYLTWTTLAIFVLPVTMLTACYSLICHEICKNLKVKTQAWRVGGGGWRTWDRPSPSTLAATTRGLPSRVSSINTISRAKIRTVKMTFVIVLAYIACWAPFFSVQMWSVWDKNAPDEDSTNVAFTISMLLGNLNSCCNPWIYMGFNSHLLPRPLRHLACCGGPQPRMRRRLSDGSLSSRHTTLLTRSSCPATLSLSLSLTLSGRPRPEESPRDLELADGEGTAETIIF
T2 sequence (Q9NSD7 whole entry): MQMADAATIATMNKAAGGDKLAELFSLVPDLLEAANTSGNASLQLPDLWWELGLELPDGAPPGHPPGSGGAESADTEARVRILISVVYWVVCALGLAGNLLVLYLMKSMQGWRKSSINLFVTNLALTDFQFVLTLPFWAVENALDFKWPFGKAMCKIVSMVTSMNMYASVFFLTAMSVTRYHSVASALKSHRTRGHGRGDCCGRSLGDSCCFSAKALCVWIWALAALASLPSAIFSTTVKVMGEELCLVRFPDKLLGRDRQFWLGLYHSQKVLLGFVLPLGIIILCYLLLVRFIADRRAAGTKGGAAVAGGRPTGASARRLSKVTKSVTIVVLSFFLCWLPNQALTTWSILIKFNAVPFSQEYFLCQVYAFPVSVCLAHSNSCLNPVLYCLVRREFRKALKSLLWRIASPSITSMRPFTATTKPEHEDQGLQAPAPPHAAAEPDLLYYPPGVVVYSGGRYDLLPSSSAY
T35 sequence (Q8IZP9 38-1017): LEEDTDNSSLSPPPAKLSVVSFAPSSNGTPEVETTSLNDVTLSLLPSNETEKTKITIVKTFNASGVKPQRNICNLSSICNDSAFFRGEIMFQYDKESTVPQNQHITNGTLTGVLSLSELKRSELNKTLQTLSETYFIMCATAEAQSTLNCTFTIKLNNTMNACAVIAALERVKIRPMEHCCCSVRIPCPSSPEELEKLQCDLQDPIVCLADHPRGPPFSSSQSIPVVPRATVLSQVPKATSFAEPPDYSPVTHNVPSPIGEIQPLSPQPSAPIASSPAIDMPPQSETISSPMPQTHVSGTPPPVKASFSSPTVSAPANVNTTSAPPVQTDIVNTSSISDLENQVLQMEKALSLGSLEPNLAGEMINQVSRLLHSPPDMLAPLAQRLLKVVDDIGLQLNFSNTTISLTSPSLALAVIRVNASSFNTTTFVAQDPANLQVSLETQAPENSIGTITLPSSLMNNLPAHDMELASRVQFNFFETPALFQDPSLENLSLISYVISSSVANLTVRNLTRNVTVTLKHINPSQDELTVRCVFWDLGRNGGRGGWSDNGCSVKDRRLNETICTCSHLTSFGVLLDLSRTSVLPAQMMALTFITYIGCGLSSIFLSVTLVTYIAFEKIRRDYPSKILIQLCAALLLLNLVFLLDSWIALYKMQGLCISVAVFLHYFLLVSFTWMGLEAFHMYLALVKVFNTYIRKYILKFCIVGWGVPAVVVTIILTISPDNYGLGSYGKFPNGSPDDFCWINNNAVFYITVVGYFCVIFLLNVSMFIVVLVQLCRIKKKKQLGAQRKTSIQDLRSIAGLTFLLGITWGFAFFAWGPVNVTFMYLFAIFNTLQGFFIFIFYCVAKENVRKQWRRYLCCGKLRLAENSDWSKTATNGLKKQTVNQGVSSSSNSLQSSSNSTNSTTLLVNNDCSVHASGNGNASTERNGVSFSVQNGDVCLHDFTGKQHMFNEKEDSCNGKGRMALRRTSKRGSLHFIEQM
T29 sequence (P21918 whole entry): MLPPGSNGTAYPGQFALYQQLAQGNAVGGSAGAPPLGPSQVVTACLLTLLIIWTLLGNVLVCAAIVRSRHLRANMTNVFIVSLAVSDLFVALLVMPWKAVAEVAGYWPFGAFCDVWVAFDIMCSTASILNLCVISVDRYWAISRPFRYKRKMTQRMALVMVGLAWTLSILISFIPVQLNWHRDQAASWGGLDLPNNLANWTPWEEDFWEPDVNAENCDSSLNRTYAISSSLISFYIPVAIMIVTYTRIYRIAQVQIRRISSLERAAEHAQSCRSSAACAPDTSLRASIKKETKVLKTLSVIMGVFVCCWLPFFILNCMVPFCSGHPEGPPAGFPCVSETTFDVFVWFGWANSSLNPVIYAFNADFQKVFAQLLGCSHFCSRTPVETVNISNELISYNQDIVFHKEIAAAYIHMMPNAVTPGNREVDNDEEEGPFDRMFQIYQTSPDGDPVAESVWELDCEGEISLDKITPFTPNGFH
T16 sequence (Q8TDS7 whole entry): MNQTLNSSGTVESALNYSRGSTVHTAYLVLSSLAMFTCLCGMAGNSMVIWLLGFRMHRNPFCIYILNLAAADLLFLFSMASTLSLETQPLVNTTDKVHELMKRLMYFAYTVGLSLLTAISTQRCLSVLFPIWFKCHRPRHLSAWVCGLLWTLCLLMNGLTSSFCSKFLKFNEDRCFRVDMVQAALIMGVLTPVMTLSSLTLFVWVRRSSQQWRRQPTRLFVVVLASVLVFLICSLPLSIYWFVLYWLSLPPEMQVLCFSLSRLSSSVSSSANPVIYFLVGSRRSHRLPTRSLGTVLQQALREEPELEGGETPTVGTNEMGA
T18 sequence (P25929 whole entry): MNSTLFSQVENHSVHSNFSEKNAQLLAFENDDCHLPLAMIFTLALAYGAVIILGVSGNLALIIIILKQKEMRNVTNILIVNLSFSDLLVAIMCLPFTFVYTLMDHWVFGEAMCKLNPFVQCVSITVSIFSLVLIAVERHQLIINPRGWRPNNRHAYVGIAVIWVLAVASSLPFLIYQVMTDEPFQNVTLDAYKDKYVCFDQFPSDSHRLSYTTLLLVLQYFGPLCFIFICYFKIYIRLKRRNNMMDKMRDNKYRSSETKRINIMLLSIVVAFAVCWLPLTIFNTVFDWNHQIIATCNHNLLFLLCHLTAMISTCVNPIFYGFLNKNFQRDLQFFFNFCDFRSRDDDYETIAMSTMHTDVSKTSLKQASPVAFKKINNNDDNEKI
T11 sequence (Q9NQ84 24-441): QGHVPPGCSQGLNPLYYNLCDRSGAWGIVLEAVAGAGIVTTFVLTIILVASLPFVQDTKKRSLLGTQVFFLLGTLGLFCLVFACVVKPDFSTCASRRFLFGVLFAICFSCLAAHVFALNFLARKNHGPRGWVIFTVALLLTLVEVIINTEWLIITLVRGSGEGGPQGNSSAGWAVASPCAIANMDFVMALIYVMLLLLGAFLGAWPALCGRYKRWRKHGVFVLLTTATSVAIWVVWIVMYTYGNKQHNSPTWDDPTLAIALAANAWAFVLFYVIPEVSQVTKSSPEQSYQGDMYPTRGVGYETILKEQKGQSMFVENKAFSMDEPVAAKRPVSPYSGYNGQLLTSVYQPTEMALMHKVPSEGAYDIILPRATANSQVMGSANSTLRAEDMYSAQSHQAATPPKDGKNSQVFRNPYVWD
T21 sequence (Q86SM5 whole entry): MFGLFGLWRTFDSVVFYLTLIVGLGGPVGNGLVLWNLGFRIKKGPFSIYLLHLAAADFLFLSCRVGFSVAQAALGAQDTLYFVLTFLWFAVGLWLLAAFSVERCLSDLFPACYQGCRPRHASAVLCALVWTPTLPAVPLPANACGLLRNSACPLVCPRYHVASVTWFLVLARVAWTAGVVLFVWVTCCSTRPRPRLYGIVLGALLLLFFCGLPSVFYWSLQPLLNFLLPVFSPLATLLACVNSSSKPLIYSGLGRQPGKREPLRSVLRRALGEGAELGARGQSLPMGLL

Which results are given for `CC(C)Cc1ncc(CCCCNC(=N)N)[nH]c1=O` [3-Homo]?
GPCR activation (heatmap value) [1]: -0.9094; GPCR activation (heatmap value) [2]: 0.07695; GPCR activation (heatmap value) [3]: -0.5041; GPCR activation (heatmap value) [4]: 0.08121; GPCR activation (heatmap value) [5]: 0.3471; GPCR activation (heatmap value) [6]: 0.08984; GPCR activation (heatmap value) [7]: -0.1039; GPCR activation (heatmap value) [8]: -0.9993; GPCR activation (heatmap value) [9]: 0.05246; GPCR activation (heatmap value) [10]: 0.1441; GPCR activation (heatmap value) [11]: 0.07279; GPCR activation (heatmap value) [12]: -0.2346; GPCR activation (heatmap value) [13]: 0.327; GPCR activation (heatmap value) [14]: -0.4507; GPCR activation (heatmap value) [15]: 0.2402; GPCR activation (heatmap value) [16]: 0.2698; GPCR activation (heatmap value) [17]: -0.2469; GPCR activation (heatmap value) [18]: -1.44; GPCR activation (heatmap value) [19]: -0.6255; GPCR activation (heatmap value) [20]: 1.206; GPCR activation (heatmap value) [21]: -0.5195; GPCR activation (heatmap value) [22]: -0.1319; GPCR activation (heatmap value) [23]: -1.272; GPCR activation (heatmap value) [24]: 0.04802; GPCR activation (heatmap value) [25]: -0.4471; GPCR activation (heatmap value) [26]: -0.8565; GPCR activation (heatmap value) [27]: -0.0693; GPCR activation (heatmap value) [28]: -1.632; GPCR activation (heatmap value) [29]: -0.03134; GPCR activation (heatmap value) [30]: 0.2309; GPCR activation (heatmap value) [31]: -0.01402; GPCR activation (heatmap value) [32]: -0.4191; GPCR activation (heatmap value) [33]: 0.3486; GPCR activation (heatmap value) [34]: -0.06399; GPCR activation (heatmap value) [35]: 0.7434

How did the “GPCR activation (heatmap value)” value [1] turn out when `CC(C)Cc1ncc(CCCNC(=N)N)[nH]c1=O` [compound 3] was run?
The value was -0.4477.

And the “GPCR activation (heatmap value)” value [2]?
Its value is -0.5079.

And the “GPCR activation (heatmap value)” value [3]?
The value was 2.203.

And the “GPCR activation (heatmap value)” value [4]?
Its value is 0.2527.

What about the “GPCR activation (heatmap value)” value [5] of the same compound?
The value was 0.7228.

And the “GPCR activation (heatmap value)” value [6]?
Its value is 0.4059.

What about the “GPCR activation (heatmap value)” value [7] of the same compound?
The value was 0.6209.

What about the “GPCR activation (heatmap value)” value [8] of the same compound?
The value was -0.1783.

And the “GPCR activation (heatmap value)” value [9]?
The value was -0.4851.

And the “GPCR activation (heatmap value)” value [10]?
Its value is 0.33.

And the “GPCR activation (heatmap value)” value [11]?
Its value is 0.188.

What about the “GPCR activation (heatmap value)” value [12] of the same compound?
Its value is 0.2369.

What about the “GPCR activation (heatmap value)” value [13] of the same compound?
The value was -0.806.

And the “GPCR activation (heatmap value)” value [14]?
Its value is -0.02389.

And the “GPCR activation (heatmap value)” value [15]?
Its value is -0.1192.

And the “GPCR activation (heatmap value)” value [16]?
The value was -0.4298.

What about the “GPCR activation (heatmap value)” value [17] of the same compound?
The value was -0.1675.

And the “GPCR activation (heatmap value)” value [18]?
Its value is -0.2056.

And the “GPCR activation (heatmap value)” value [19]?
The value was 0.3024.

What about the “GPCR activation (heatmap value)” value [20] of the same compound?
The value was 0.3199.

And the “GPCR activation (heatmap value)” value [21]?
Its value is -0.5206.

And the “GPCR activation (heatmap value)” value [22]?
The value was -0.4576.

What about the “GPCR activation (heatmap value)” value [23] of the same compound?
Its value is 0.7196.

And the “GPCR activation (heatmap value)” value [24]?
Its value is 0.5.

And the “GPCR activation (heatmap value)” value [25]?
The value was 0.1702.

What about the “GPCR activation (heatmap value)” value [26] of the same compound?
Its value is -1.487.

And the “GPCR activation (heatmap value)” value [27]?
The value was 0.04754.

What about the “GPCR activation (heatmap value)” value [28] of the same compound?
Its value is 0.06134.

What about the “GPCR activation (heatmap value)” value [29] of the same compound?
Its value is 1.05.

And the “GPCR activation (heatmap value)” value [30]?
The value was -0.04196.

What about the “GPCR activation (heatmap value)” value [31] of the same compound?
The value was 0.6298.

And the “GPCR activation (heatmap value)” value [32]?
The value was -0.2613.

And the “GPCR activation (heatmap value)” value [33]?
The value was 0.5113.

And the “GPCR activation (heatmap value)” value [34]?
Its value is 0.4975.

What about the “GPCR activation (heatmap value)” value [35] of the same compound?
The value was 0.632.
